# Experimental data taken from patent US20260007600A1, “NUCLEIC ACID DRUG FOR TREATING HYPERURICEMIA-RELATED DISEASES, PREPARATION METHOD THEREFOR, AND USE THEREOF” (Rigerna Therapeutics (Beijing) Co., Ltd., priority 2022, published 2026).
# Legend:
# [1] = system: hyperuricemia mouse model; test: Therapeutic effect in hyperuricemia model mice (uric acid inhibitors injected subcutaneously), Example 8; assay type: in vivo, C57BL/6 mice; conditions: mUox@iLAND 200 μL tail vein once; Allopurinol daily in drinking water; vs PBS group; FIG. 15
# Source text: (§1) Female C57BL/6 mice aged 6 to 8 weeks were purchased from SPF (BEIJING) BIOTECHNOLOGY CO., LTD. The mice were randomly divided into 4 groups and subjected to different treatments, i.e., one group was fed normally, and the other three groups were constructed as models of hyperuricemia. For model mice, uric acid inhibitors were subcutaneously injected on Day −14. On Day 0, blood of all the mice was collected by orbital sampling, and serum was separated to detect uric acid levels. After confirming that the models of mice were successfully modeled, the mice were administrated with drug. The mice that were not subjected to the model construction were raised normally and administrated through tail vein injection with 200 μL of PBS (Control group, G1). The mice were subject to the model construction, and on 14 days after the model construction, the mice were administrated through tail vein injection with 200 μL of PBS (PBS group, G2). […] At different time points after the drug administration, blood of the mice was collected by orbital sampling, and the serum was separated and analyzed for uric acid and other biochemical indices. The changes in weight of the mice were recorded throughout the model construction and drug administration.
# [2] = system: hyperuricemia mouse model; test: Therapeutic effect in hyperuricemia model mice (0.15% high-purine feed), Example 9; assay type: in vivo, C57BL/6 mice; conditions: for serum uric acid during treatment: Allopurinol daily in drinking water
# Source text: as §1, with “For the” for “For”, “the mice” for “uric acid inhibitors”, “fed with 0.15% high-purine feed starting from” for “subcutaneously injected on”, “−14, that is, the hyperuricemia model was constructed by continuous high-purine diet.” for “−14.”, “administration. […] The liver tissue was taken for metabolomics analysis, and the heart, liver, spleen, lung, kidney, and other tissues and organs were fixed and analyzed for pathological changes by H&E staining.” for “administration.”
# The same method as step 1 of the present example was used to construct the hyperuricemia mouse model, and the therapeutic effect of the novel lipid nanoparticle Uox1@iLAND in the hyperuricemia mouse model was evaluated. […] At different time points after the drug administration, blood of the mice was collected by orbital sampling, and the serum was separated and the uric acid level was measured.
structure (smiles),measurement,setting,value
Oc1ncnc2[nH]ncc12 [Allopurinol],serum uric acid during treatment,[1],able to maintain a certain level of uric acid
same,serum uric acid level reached,"[2]; step 1, Allopurinol daily in drinking water, FIG. 19",around 0 μM
same,serum uric acid during treatment,"[2]; step 1, mUox@iLAND 200 μL tail vein once, FIG. 19",lowered the uric acid level below the normal level
same,serum uric acid during treatment,"[2]; step 2, Uox1@iLAND 200 μL tail vein once, FIG. 24",lower the uric acid level to a level same as the normal level or a level lower than the normal level
